Experimental findings from ChEMBL document CHEMBL3046898, “Synthesis and characterization of flurbiprofen hydrazide derivatives as potential anti-HCV, anticancer and antimicrobial agents” (2013) are described below.

In assay [1] the test system is Micrococcus lylae. In words: Antibacterial activity against Micrococcus lylae at 6.25 to 200 ug/ml after 24 hrs by microwell dilution method. It counts as functional, organism-based.
For assay [2], the system named is Pseudomonas aeruginosa. In words: Antibacterial activity against Pseudomonas aeruginosa at 6.25 to 200 ug/ml after 24 hrs by microwell dilution method. It counts as functional, organism-based.
The subject of assay [3] is Proteus vulgaris. In words: Antibacterial activity against Proteus vulgaris at 6.25 to 200 ug/ml after 24 hrs by microwell dilution method. The class given is functional, organism-based.
Assay [4] concerns Escherichia coli. Put plainly: Antibacterial activity against Escherichia coli at 6.25 to 200 ug/ml after 24 hrs by microwell dilution method. It counts as functional, organism-based.
Assay [5] has as its system Staphylococcus cohnii. In words: Antibacterial activity against Staphylococcus cohnii at 6.25 to 200 ug/ml after 24 hrs by microwell dilution assay. The class given is functional, organism-based.
Assay [6] concerns Staphylococcus aureus. In words: Antibacterial activity against Staphylococcus aureus at 6.25 to 200 ug/ml after 24 hrs by microwell dilution assay. The class given is functional, organism-based.
Assay [7] concerns Micrococcus luteus. In words: Antibacterial activity against Micrococcus luteus at 6.25 to 200 ug/ml after 24 hrs by microwell dilution method. The class given is functional, organism-based.
The subject of a further assay is Aspergillus. In words: Antifungal activity against Aspergillus at 10 mg/ml after 72 hrs by disc diffusion method. It counts as functional, organism-based.
For another assay, the system named is Pichia membranifaciens. In words: Antifungal activity against Pichia membranifaciens at 10 mg/ml after 48 hrs by disc diffusion method. The class given is functional, organism-based. (In general: In agar diffusion tests the substance spreads into inoculated agar from a disc or well.)
The subject of a further assay is Kluyveromyces marxianus. In words: Antifungal activity against Kluyveromyces marxianus at 10 mg/ml after 48 hrs by disc diffusion method. The class given is functional, organism-based.
Assay [8] has as its system Schwanniomyces occidentalis. Put plainly: Antifungal activity against Schwanniomyces occidentalis at 10 mg/ml after 48 hrs by disc diffusion method. It counts as functional, organism-based.
In the next assay the test system is Nakaseomyces glabratus. Put plainly: Antifungal activity against Candida glabrata at 10 mg/ml after 48 hrs by disc diffusion method. It counts as functional, organism-based.
Another assay relates to Candida parapsilosis. In words: Antifungal activity against Candida parapsilosis at 10 mg/ml after 48 hrs by disc diffusion method. It counts as functional, organism-based.
The subject of a further assay is Candida tropicalis. Put plainly: Antifungal activity against Candida tropicalis at 10 mg/ml after 48 hrs by disc diffusion method. The class given is functional, organism-based.
Another assay concerns Candida albicans. In words: Antifungal activity against Candida albicans at 10 mg/ml after 48 hrs by disc diffusion method. The class given is functional, organism-based.
The subject of assay [9] is Photorhabdus luminescens. In words: Antibacterial activity against Photorhabdus luminescens at 10 mg/ml after 24 hrs by disc diffusion method. The class given is functional, organism-based.
In another assay the test system is MDA-MB-468. In words: Cytotoxicity against human MDA-MB-468 assessed as cell growth at 10 uM after 48 hrs by SRB assay. The class given is functional. The settings on record: MDA-MB-468, 48 h, read-out: Activity. In general terms: Sulforhodamine B stains cellular protein and so reports cell mass.
Another assay has as its system T47D. In words: Cytotoxicity against human T47D assessed as cell growth at 10 uM after 48 hrs by SRB assay. The class given is functional. As to conditions: read-out: Activity.
Assay [10] relates to Klebsiella aerogenes. Put plainly: Antibacterial activity against Enterobacter aerogenes at 6.25 to 200 ug/ml after 24 hrs by microwell dilution method. It counts as functional, organism-based.
The subject of assay [11] is Photorhabdus luminescens. Put plainly: Antibacterial activity against Photorhabdus luminescens at 6.25 to 200 ug/ml after 24 hrs by microwell dilution method. It counts as functional, organism-based.
For assay [12], the system named is Acinetobacter radioresistens. In words: Antibacterial activity against Acinetobacter radioresistens at 6.25 to 200 ug/ml after 24 hrs by microwell dilution method. It counts as functional, organism-based.
Assay [13] has as its system Salmonella paratyphi. In words: Antibacterial activity against Salmonella paratyphi at 6.25 to 200 ug/ml after 24 hrs by microwell dilution method. It counts as functional, organism-based. The settings on record: Salmonella enterica subsp. enterica serovar Paratyphi A.
The subject of assay [14] is Klebsiella aerogenes. Put plainly: Antibacterial activity against Enterobacter aerogenes at 10 mg/ml after 24 hrs by disc diffusion method. The class given is functional, organism-based.
The test system of assay [15] is Acinetobacter radioresistens. In words: Antibacterial activity against Acinetobacter radioresistens at 10 mg/ml after 24 hrs by disc diffusion method. The class given is functional, organism-based.
The test system of assay [16] is Salmonella paratyphi. Put plainly: Antibacterial activity against Salmonella paratyphi at 10 mg/ml after 24 hrs by disc diffusion method. The class given is functional, organism-based. The settings on record: Salmonella enterica subsp. enterica serovar Paratyphi A.
For assay [17], the system named is Micrococcus lylae. Put plainly: Antibacterial activity against Micrococcus lylae at 10 mg/ml after 24 hrs by disc diffusion method. The class given is functional, organism-based.
Assay [18] relates to Pseudomonas aeruginosa. Put plainly: Antibacterial activity against Pseudomonas aeruginosa at 10 mg/ml after 24 hrs by disc diffusion method. The class given is functional, organism-based.
Assay [19] deals with Escherichia coli. Put plainly: Antibacterial activity against Escherichia coli at 10 mg/ml after 24 hrs by disc diffusion method. The class given is functional, organism-based.
The test system of assay [20] is Proteus vulgaris. In words: Antibacterial activity against Proteus vulgaris at 10 mg/ml after 24 hrs by disc diffusion method. It counts as functional, organism-based.
Assay [21] concerns Micrococcus luteus. Put plainly: Antibacterial activity against Micrococcus luteus at 10 mg/ml after 24 hrs by disc diffusion method. It counts as functional, organism-based.
Assay [22] concerns Staphylococcus aureus. In words: Antibacterial activity against Staphylococcus aureus at 10 mg/ml after 24 hrs by disc diffusion method. It counts as functional.
The test system of assay [23] is Staphylococcus cohnii. Put plainly: Antibacterial activity against Staphylococcus cohnii at 10 mg/ml after 24 hrs by disc diffusion method. It counts as functional.
In the next assay the test system is Hepacivirus hominis. Put plainly: Inhibition of HCV N-terminal His-tagged NS5B RNA dependent RNA polymerase expressed in Escherichia coli DH5alpha using poly rA/U12 as primer at 200 uM after 60 mins by liquid scintillation counting.
In a further assay the test system is SR. Put plainly: Cytotoxicity against human SR assessed as cell growth at 10 uM after 48 hrs by SRB assay. It counts as functional. The settings on record: read-out: Activity.
Assay [24] relates to Staphylococcus aureus. In words: Antibacterial activity against Staphylococcus aureus at 200 ug/disc after 24 hrs by disc diffusion method. The class given is functional, organism-based.
Assay [25] has as its system Staphylococcus cohnii. Put plainly: Antibacterial activity against Staphylococcus cohnii at 200 ug/disc after 24 hrs by disc diffusion method. The class given is functional, organism-based.
The subject of a further assay is PC-3. Put plainly: Cytotoxicity against human PC3 assessed as cell growth at 10 uM after 48 hrs by SRB assay. The class given is functional. The settings on record: PC-3, 48 h, read-out: Activity.
The subject of another assay is CAKI-1. In words: Cytotoxicity against human Caki1 assessed as cell growth at 10 uM after 48 hrs by SRB assay. The class given is functional. The settings on record: CAKI-1, 48 h, read-out: Activity.
Assay [26] relates to Staphylococcus aureus. In words: Antibacterial activity against Staphylococcus aureus at 100 to 200 ug/ml after 24 hrs by microwell dilution assay. The class given is functional, organism-based.
Assay [27] concerns Staphylococcus cohnii. In words: Antibacterial activity against Staphylococcus cohnii at 100 to 200 ug/ml after 24 hrs by microwell dilution assay. The class given is functional, organism-based.
In assay [28] the test system is Micrococcus luteus. Put plainly: Antibacterial activity against Micrococcus luteus at 100 to 200 ug/ml after 24 hrs by microwell dilution assay. The class given is functional, organism-based.

Calls of active or inactive are those of the source. The calls are words filed in the database; no cut-off is given here.

The inhibition is the drop in the measured response relative to a control, in per cent. A lower inhibition goes with a response near the control. As to `CCN1C(=O)CS/C1=N\NC(=O)C(C)c1ccc(-c2ccccc2)c(F)c1` (stereo not given), the outcome with Micrococcus lylae [1], with Pseudomonas aeruginosa [2], with Proteus vulgaris [3], in the assay on Escherichia coli [4], with Staphylococcus cohnii [5] and in the assay on Staphylococcus aureus [6] was inactive. In addition, the outcome (in the assay with Micrococcus luteus [7]; in the assay on Aspergillus; in the assay on Pichia membranifaciens; in the assay on Kluyveromyces marxianus; in [8]; in the assay on Nakaseomyces glabratus) was inactive. For the same compound, the outcome in the assay on Candida parapsilosis, with Candida tropicalis, in the assay with Candida albicans, in the assay on Photorhabdus luminescens [9], in the assay with Klebsiella aerogenes [10] and in the assay with Photorhabdus luminescens [11] was inactive. Moreover, the outcome (in [12]; in the assay with Salmonella paratyphi [13]; with Klebsiella aerogenes [14]; in [15]; with Salmonella paratyphi [16]; in the assay on Micrococcus lylae [17]) was inactive. In addition, the outcome in the assay with Pseudomonas aeruginosa [18], in the assay with Escherichia coli [19], in the assay with Proteus vulgaris [20], in the assay with Micrococcus luteus [21], with Staphylococcus aureus [22] and in the assay on Staphylococcus cohnii [23] was inactive. Besides, the growth at 10 µM came out at 43.6% in the assay with MDA-MB-468 and 55.2% in the assay with T47D. Also, the inhibition in the assay with Hepacivirus hominis came out at 8%.

Regarding `COc1ccc(/C=N/NC(=O)C(C)c2ccc(-c3ccccc3)c(F)c2)cc1` (stereo not given), the outcome in the assay with Micrococcus lylae [1], with Pseudomonas aeruginosa [2], in the assay on Proteus vulgaris [3], with Escherichia coli [4], in the assay with Staphylococcus cohnii [5] and with Staphylococcus aureus [6] was inactive. The outcome (in the assay on Micrococcus luteus [7]; in the assay with Aspergillus; in the assay on Pichia membranifaciens; in the assay with Kluyveromyces marxianus; in [8]; in the assay with Nakaseomyces glabratus) was inactive. Moreover, the result with Candida parapsilosis, in the assay with Candida tropicalis, in the assay with Candida albicans, with Photorhabdus luminescens [9], with Klebsiella aerogenes [10] and with Photorhabdus luminescens [11] was inactive. Moreover, the outcome (in [12]; in the assay with Salmonella paratyphi [13]; in the assay with Klebsiella aerogenes [14]; in [15]; in the assay with Salmonella paratyphi [16]; with Micrococcus lylae [17]) was inactive. The result in the assay on Pseudomonas aeruginosa [18], with Escherichia coli [19], in the assay on Proteus vulgaris [20], with Micrococcus luteus [21], in the assay on Staphylococcus aureus [22] and with Staphylococcus cohnii [23] was inactive. The growth at 10 µM with T47D is 57.4%; with SR, 46%. Also, the inhibition in the assay on Hepacivirus hominis was 8%.

`CC1(C)S[C@@H]2[C@H](NC(=O)[C@H](N)c3ccccc3)C(=O)N2[C@H]1C(=O)O`: the result in the assay on Staphylococcus aureus [24] and with Staphylococcus cohnii [25] was inactive.

For the compound `CC(C(=O)NN1C(=O)CSC1c1ccc(Cl)cc1)c1ccc(-c2ccccc2)c(F)c1` (stereo not given), the growth at 10 µM with T47D was found to be 50.9%; in the assay with PC-3, 49.2%; with CAKI-1, 29.6%. For the same compound, the result in the assay on Staphylococcus aureus [26], in the assay on Staphylococcus cohnii [27] and with Micrococcus luteus [28] was Active. Also, in the assay with Hepacivirus hominis, the inhibition was 8%.
